According to article PMC6534110, “Enzyme characterization and biological activities of a resuscitation promoting factor from an oil degrading bacterium Rhodococcus erythropolis KB1” (PeerJ, 2019):

Molecular target: T1, Rpf-1 (Rhodococcus erythropolis, UniProt C0ZMT9)
T1 construct: N-terminal Trx-His-S tag of pET-32a(+) kept (37 kDa on SDS-PAGE); forward primer encodes MSGRHR, reverse primer encodes C-terminal AKTFLK; conserved Cys50, Glu51, Cys114
Assay: fluorogenic hydrolysis, 4-methylumbelliferone release ([…] nm)
Assay type: biochemical
Settings: 22 μM printed, McIlvaine phosphate-citrate buffer pH 5.2, 37 °C, 30 min

T1 sequence (C0ZMT9 entry or part of it): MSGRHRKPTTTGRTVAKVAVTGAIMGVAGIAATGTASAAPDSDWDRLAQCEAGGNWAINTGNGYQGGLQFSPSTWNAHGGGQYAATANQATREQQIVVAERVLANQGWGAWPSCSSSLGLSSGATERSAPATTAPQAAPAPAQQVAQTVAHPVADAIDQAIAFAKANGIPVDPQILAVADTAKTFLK

CC(=O)N[C@H]1[C@H](Oc2ccc3c(C)cc(=O)oc3c2)O[C@H](CO)[C@@H](O[C@@H]2O[C@H](CO)[C@@H](O[C@@H]3O[C@H](CO)[C@@H](O)[C@H](O)[C@H]3NC(C)=O)[C@H](O)[C@H]2NC(C)=O)[C@@H]1O [4-methylumbelliferyl-β-D-N,N′,N″-triacetylchitotrioside]
fluorogenic hydrolysis, 4-methylumbelliferone release (360/455 nm): The recombinant Rpf-1 showed muralytic activity when determined with the artificial lysozyme substrate
